From patent publication US12691114B2, “Compositions for inhibition of herpesviruses” (The Medical College of Wisconsin, Inc., priority 2020, dated 2026) come the findings set out here.

The subject of one test is HCMV. The test can be described thus: Drug combination of GCV and 2955 by plaque assay, Bliss model. It is filed as cell-based, human cytomegalovirus. The settings on record: Human betaherpesvirus 5; combination experiment with GCV, plaque assay; read-out: EC50 (μM) of Compound 2. The procedure:
Drug combination and analysis: These experiments were performed as previously reported^40. The combination of GCV and each compound was tested using the pp28-luciferase. Briefly, 2×10^6 HFFs/plate were seeded in 96-well plates and infected with the pp28-luciferase Towne HCMV strain (MOI=1). First, a dose response curve was generated for each drug individually to determine its EC50. Then, drugs were combined at twice their EC50, diluted in DMEM with 4% FBS, followed by serial dilution and added together after infection. Luciferase activity of the combination and each drug individually was quantified at 72 hpi. The combination of letermovir and each of the new compounds was tested by the plaque assay using TB40. The same principle applied in this assay for the drug combination effect, and plaques were counted at 8 dpi. The Bliss model was used to calculate the effect of each drug combination on pp28-luciferase activity and plaque reduction. […]
Pattern of drug combination with GCV and letermovir: The effect of each compound alone or in combination with GCV or letermovir was tested in HCMV-infected HFFs. […] For letermovir and its combination with each of the five compounds the EC50 was determined based on plaque assay. […] All other combinations and Bliss coefficients were measured by pp28- luciferase.

The subject of the next test is HSV2 clinical isolate. The test can be described thus: Plaque reduction assay, HSV2 in Vero cells. The following applies: plaque reduction. In kind it is cell-based, Human Herpesvirus 2. The source says: Viruses and antiviral assays: A recombinant pp28-luciferase Towne HCMV strain expressing luciferase under the control of the UL99 (pp28) late promoter was reported to provide a highly-sensitive and reproducible reporter for drug screening^20. A GCV-resistant HCMV pp28-luciferase that contains a C607Y mutation in UL97 was reported^37. The HCMV TB40 strain was obtained from ATCC (VR-1578). Clinical isolates of Human Herpesvirus 1 and 2 (HSV1, HSV2) were collected from the Johns Hopkins Microbiology laboratory without identifiers that could link them to a specific patient. Mouse CMV (MCMV) Smith strain (ATCC VR-1399) was used for infection of MEFs.
Plaque reduction assay: HFFs were seeded into 12-well plates (2×10^5 cells/well) and infected with HCMV TB40 at approximately 100 plaques/well. After 90 min, media were aspirated, and DMEM containing 0.5% carboxymethyl-cellulose (CMC), 4% fetal bovine serum (FBS), and drugs were added into duplicate wells. Following incubation at 37° C. for 10-12 days the overlay was removed, and plaques were counted after crystal violet staining. For HSV1 and HSV2 replication in Vero cells, the adsorption time was 60 min and plaques were counted after 36 h. Plaque assays in MEFs were completed after 3 days.
Inhibition of other herpesviruses: Inhibition of herpes simplex 1 and 2 (HSV1, HSV2), Epstein Barr virus (EBV) and mouse CMV (MCMV) was tested with the five compounds. Plaque reductions assays were used for HSV1, HSV2 and MCMV. Inhibition of lytic EBV replication was measured by real-time PCR in AKATA cells following IgG induction. Only MLS8554 was active against HSV1, HSV2 and MCMV (Table 2).

In general, EC50 refers to the concentration at which the effect is half-maximal. Take `CC(C)NC(=O)C1CCN(C(=O)c2cc3sccc3n2Cc2ccc(Cl)cc2)CC1` [NCGC2955, 1-(4-(4-chlorobenzyl)-4H-thieno[3,2-b]pyrrole-5-carbonyl)-N-isopropylpiperidine-4-carboxamide]: the EC50 in the test on HCMV was determined as 1.51 ± 0.03 µM. In the case of `CCc1ccc(NC(=O)[C@H](Cc2c[nH]c3ccccc23)NC(=O)[C@@H]2Cc3ccccc3CN2)cc1` [MLS8554], the “activity against HSV2, in words” value in the test on HSV2 clinical isolate is “active”. Besides, in the test on HSV2 clinical isolate (Vero cells, NA = Not active, read-out: EC50—HSV2-C1), the EC50 was 1300 ± 100 nM.
